# Experimental data reported in patent US4550172A, “Novel heterocyclic compounds as antiallergic agents” (American Home Products Corporation, priority 1984, dated 1985).
# Tested on: LTD4 induced bronchoconstriction
# Assay: inhibition of LTD4-induced bronchospasm in guinea pigs (SRS-A antagonist properties)
# Type: in vivo, guinea pigs (male Hartley strain)
# Conditions: LTD4 for induction, compound 50 mg/kg intraduodenal, 10 minutes before induction of bronchospasm
# Procedure: The assay of this Example measures the in vivo ability of the components of the invention to inhibit the bronchospasm induced in guinea pigs by the exogenously administered leukotrienes C4 and/or D4. This assay is essentially a measure of the SRS-A antagonist properties of the compounds tested.
# This assay is carried out as follows:
# Male Hartley strain guinea pigs (350-600 g) are anesthetized with pentobarbital sodium (50 mg/kg, i.p.). The jugular vein is cannulated for injection of drugs and the carotid artery for monitoring blood pressure. The trachea is cannulated for artificial ventilation by a miniature Starling pump and for indirect measurement of respiratory volume changes as described infra. Additional pentobarbital sodium (15 mg/kg, i.v.) is administered to arrest spontaneous respiration. Submaximal bronchoconstrictor responses are established in control animals by varying the dose-levels of leukotriene. Intravenous dose-levels for LTC4 range from 1 to 2 μg/kg and for LTD4 the range is from 0.3 to 1 μg/kg. The aerosol bronchoprovocation dose for LTC4 is generated from 1.6 μM solution and for LTD4 from a 2.0 μM solution.
# Test drugs are administered either intravenously, intraduodenally, by aerosol or orally at 1 or 10 minutes before induction of bronchospasm by administration of either LTC4 or LTD4 at the predetermined dose-levels. Aerosols of soluble drugs or leukotrienes are produced in-line for 10 seconds only by actuation of an ultrasonic nebulizer (Monaghan). Aerosolized drug dosage is expressed in terms of solution concentration and by a fixed aerosol exposure time (approximately 10 seconds). Control animals receive saline in place of drug.
# Respiratory volume changes are determined by a calibrated piston whose travel is recorded, via a linear transducer, on a Beckman Dynograph recorder. Maximal bronchoconstrictor volume is determined by clamping off the trachea at the end of the experiment. Overflow volumes at 1, 3 and 5 minutes are obtained from the recorded charts.
# The overflow volume at 1, 3 and 5 minutes is expressed as a percentage of maximal bronchoconstriction. Combined group values are used from each of these time intervals to determine the inhibitory effect of drugs. [formula] Students t-test for unpaired data is used to determine statistical significance. Dose response curves are generated and ED50 doses are interpolated from the regression lines.
# Results for a compound of the invention in this assay, using LTD4 for induction of bronchospasm, is given below: […]
Compound,% Inhibition Overflow Volume at 3 min.,% Inhibition Overflow Volume at 5 min.
"O=C1CCC(=O)N1c1cccc(OCc2nc3ccccc3s2)c1 [Example 1, N-[3-[(2-benzothiazolyl)methoxy]phenyl]pyrrolidin-2,5-dione]",63%,68%
"Cn1c(COc2cccc(N3C(=O)CCC3=O)c2)nc2ccccc21 [Example 2, N-[3-[(1-methyl-2-benzimidazolyl)methoxy]phenyl]pyrrpolidin-2,5-dione]",75%,78%
